Assay results taken from patent publication US9896454B2, “Microbiocidal heterobicyclic derivatives” (Syngenta Participations AG, priority 2014, dated 2018).

Work on `COc1ccc2ncc(C3=NC(C)(C)C(C)(C)c4c(F)cccc43)cn12` [E 1] yielded a melting point of 120 to 122 °C. For `CC1(C)N=C(c2cnc3cccn3c2)c2cccc(F)c2C1(C)C` [E 2, 5-fluoro-3,3,4,4-tetramethyl-1-pyrrolo[1,2-a]pyrimidin-3-yl-isoquinoline], the melting point was 130 to 134 °C. In the case of `CC1(C)N=C(c2cnc3ccc(Br)n3c2)c2cccc(F)c2C1(C)C` [E 4], the melting point is reported as 166 to 167 °C. `CC1(C)Cc2c(F)cccc2C(c2cnc3ccnn3c2)=N1` [E 9] showed a melting point of 159 to 160 °C. `CC1(C)Cc2c(Cl)cccc2C(c2cnc3ccnn3c2)=N1` [E 10] gave a melting point of 105 °C. Work on `Cc1cc2ncc(C3=NC(C)(C)C(C)(C)c4c(F)cccc43)cn2n1` [E 12] yielded a melting point of 180 to 190 °C. `Cc1nn2cc(C3=NC(C)(C)C(C)(C)c4c(F)cccc43)cnc2c1Br` [E 13] gave a melting point of 132 to 134 °C. `CC1(C)N=C(c2cnc3c(Br)cnn3c2)c2cccc(F)c2C1(C)C` [E 14] gave a melting point of 58 to 61 °C. In the case of `Cc1cnn2cc(C3=NC(C)(C)C(C)(C)c4c(F)cccc43)cnc12` [E 15], the melting point is reported as 126 to 128 °C. Work on `CC1(C)N=C(c2cnc3c(C#N)cnn3c2)c2cccc(F)c2C1(C)C` [E 16] yielded a melting point of 179 to 182 °C. With `CC1(C)Cc2c(F)cccc2C(c2cnc3c(Br)cnn3c2)=N1` [E 17, 1-(3-bromopyrazolo[1,5-a]pyrimidin-6-yl)-5-fluoro-3,3-dimethyl-4H-isoquinoline] the melting point was 121 to 123 °C. `CC1(C)N=C(c2cnc3c(Br)cnn3c2)c2cccc(F)c2C1=O` [E 19, 1-(3-bromopyrazolo[1,5-a]pyrimidin-6-yl)-5-fluoro-3,3-dimethyl-isoquinolin-4-one] gave a melting point of 201 to 203 °C. `CSc1nn2cc(C3=NC(C)(C)C(C)(C)c4c(F)cccc43)cnc2c1C#N` [E 20] gave a melting point of 112 to 114 °C. Work on `CC1(C)N=C(c2cnc3c(Br)cnn3c2)c2cccc(F)c2C1(F)F` [E 21, 1-(3-bromopyrazolo[1,5-a]pyrimidin-6-yl)-4,4,5-trifluoro-3,3-dimethyl-isoquinoline] yielded a melting point of 164 to 166 °C. With `Cc1cnn2cc(C3=NC(C)(C)C(F)(F)c4c(F)cccc43)cnc12` [E 22] the melting point was 135 to 138 °C. `Cc1nn2cc(C3=NC(C)(C)C(C)(C)c4c(F)cccc43)cnc2c1C#N` [E 23] showed a melting point of 176 to 178 °C. Work on `CC1(C)N=C(c2cnc3c(C#N)cnn3c2)c2cccc(F)c2C1(F)F` [E 24, 6-(4,4,5-trifluoro-3,3-dimethyl-1-isoquinolyl)pyrazolo[1,5-a]pyrimidine-3-carbonitrile] yielded a melting point of 215 to 217 °C. For `Cc1nn2cc(C3=NC(C)(C)C(C)(C)c4c(F)cccc43)cnc2c1C` [E 25], the melting point was 136 to 139 °C. With `CC1(C)N=C(c2cnc3c(F)cnn3c2)c2cccc(F)c2C1(C)C` [E 26] the melting point was 198 to 200 °C. With `CC1(C)N=C(c2cnc3nccn3c2)c2cccc(F)c2C1(C)C` [E 27] the melting point was 240 to 242 °C. With `CC1(C)Cc2c(F)cccc2C(c2cnc3nccn3c2)=N1` [E 28] the melting point was 227 to 229 °C. `Cc1cccc2c1CC(C)(C)N=C2c1cnc2nccn2c1` [E 30] showed a melting point of 157 to 158 °C. `CC1(C)N=C(c2cnc3nc(Br)cn3c2)c2cccc(F)c2C1(C)C` [E 31] showed a melting point of 134 to 136 °C. `CC1(C)N=C(c2cnc3c(Br)cc(Br)n3c2)c2cccc(F)c2C1(C)C` [E 39] showed a melting point of 141 to 143 °C.
